Results published in patent US20250282759A1, “POLYMORPHIC AND SALT FORMS OF THE AUTOTAXIN INHIBITOR CUDETAXESTAT” (Sabre Therapeutics LLC, priority 2022, published 2025).
“Also recorded” adds a separate entry of the source.

What was measured:
Format in all cases: physicochemical
[1] = Physical and chemical stability under 25° C./60% RH and 40° C./75% RH; conditions: for degradation and/or form change: 25° C./60% RH and 40° C./75% RH, one week; for Stability results (Open for 1 week) Form change: XRPD; for Initial Purity (area %): before storage
Method: Stability measurements were analyzed with a Waters H-Class ultra-performance liquid chromatography (UPLC) system using the conditions and parameters listed below.
Approximately 20 mg of a solid sample of each crystalline form was added to a HPLC vial (open dish) and then stored under 25° C./60% RH or 40° C./75% RH. After one week, the samples were removed from the test conditions and analyzed by HPLC and XRPD to assess chemical and physical stability, respectively.

[2] = Dynamic Vapor Sorption (DVS); conditions: for moisture uptake / hygroscopicity: 25° C./80% RH; for hygroscopicity: DVS
Method: Dynamic Vapor Sorption (DVS) analysis was conducted using a SMS (Surface Measurement Systems) DVS Intrinsic analyzer using the parameters listed below. [table]

[3] = Competitive slurry of Form A and Form C of Compound 1; conditions: 2 days
Description: The obtained solids were isolated for XRPD analysis.

[4] = Form E exposed to ambient condition; conditions: 5 hours

CCCn1cc(-n2c(Cl)c(Sc3cccc(C(=O)O)c3F)c3ccc(Cl)c(F)c32)cn1 [Form 1 of Compound 1-A]
degradation and/or form change [1]: no significant degradation and/or form change | Stability results (Open for 1 week) Appearance ([1]; 25° C./60% RH): No | Stability results (Open for 1 week) Purity (area %) ([1]; 25° C./60% RH): 99.73 area % | Stability results (Open for 1 week) Form change ([1]; 25° C./60% RH): No | Stability results (Open for 1 week) Appearance ([1]; 40° C./75% RH): No | Stability results (Open for 1 week) Purity (area %) ([1]; 40° C./75% RH): 99.73 area % | Stability results (Open for 1 week) Form change ([1]; 40° C./75% RH): No | Initial Purity (area %) [1]: 99.79 area % | moisture uptake [2]: 0.32% | hygroscopicity [2]: slightly hygroscopic | hygroscopicity ([2]; listed as crystalline Form 1): slightly hygroscopic; also recorded: non-hygroscopic

CCCn1cc(-n2c(Cl)c(Sc3cccc(C(=O)O)c3F)c3ccc(Cl)c(F)c32)cn1 [Form 3 of Compound 1-B]
degradation and/or form change [1]: no significant degradation and/or form change | Stability results (Open for 1 week) Appearance ([1]; 25° C./60% RH): No | Stability results (Open for 1 week) Purity (area %) ([1]; 25° C./60% RH): 99.72 area % | Stability results (Open for 1 week) Form change ([1]; 25° C./60% RH): No | Stability results (Open for 1 week) Appearance ([1]; 40° C./75% RH): No | Stability results (Open for 1 week) Purity (area %) ([1]; 40° C./75% RH): 99.73 area % | Stability results (Open for 1 week) Form change ([1]; 40° C./75% RH): No | Initial Purity (area %) [1]: 99.77 area % | moisture uptake [2]: 0.1% | hygroscopicity [2]: non-hygroscopic | form change after DVS test ([2]; after DVS test): No form change

CCCn1cc(-n2c(Cl)c(Sc3cccc(C(=O)O)c3F)c3ccc(Cl)c(F)c32)cn1 [Form A + Form C]
XRPD Result ([3]; Acetone, water activity 0.0, room temperature): Form C | XRPD Result ([3]; Acetone/H2O (605:395), water activity 0.8, room temperature): Form A | XRPD Result ([3]; Acetone/H2O (858:142), water activity 0.6, room temperature): Form A | XRPD Result ([3]; Acetone/H2O (950:50), water activity 0.4, room temperature): Form C | XRPD Result ([3]; Acetone/H2O (986:14), water activity 0.2, room temperature): Form C | XRPD Result ([3]; H2O, water activity 1.0, room temperature): Form A

CCCn1cc(-n2c(Cl)c(Sc3cccc(C(=O)O)c3F)c3ccc(Cl)c(F)c32)cn1 [Form A]
degradation and/or form change [1]: no significant degradation and/or form change | Stability results (Open for 1 week) Appearance ([1]; 25° C./60% RH): No | Stability results (Open for 1 week) Purity (area %) ([1]; 25° C./60% RH): 99.82 area % | Stability results (Open for 1 week) Form change ([1]; 25° C./60% RH): No | Stability results (Open for 1 week) Appearance ([1]; 40° C./75% RH): No | Stability results (Open for 1 week) Purity (area %) ([1]; 40° C./75% RH): 99.75 area % | Stability results (Open for 1 week) Form change ([1]; 40° C./75% RH): No | Initial Purity (area %) [1]: 99.78 area %

CCCn1cc(-n2c(Cl)c(Sc3cccc(C(=O)O)c3F)c3ccc(Cl)c(F)c32)cn1 [Form E]
form transfer on exposure to ambient condition [4]: transferred back to Form A; also recorded: Freeform Type E transferred to freeform Type A after
